Results reported in patent US8920851B2, “Treatment of neurodegenerative diseases” (Velacor Therapeutics Pty Ltd, priority 2006, dated 2014).
Entries after “also recorded” stand apart in the source; their conditions may differ.

Tests used:
GSK-3β = GSK-3β Ser9 phosphorylation by immunoblot in PC3 cells; type: cell-based, human; details: densitometry, sodium selenate 500 μM 3 h, LY294002 50 μM 1 h
Excerpt: The metabolic effects of insulin on glycogen synthesis are mediated by glycogen synthase kinase-3 (GSK-3), a direct downstream substrate of Akt. GSK-3 is a ubiquitously expressed serine/threonine kinase that phosphorylates and inactivates glycogen synthase. In response to activation of the insulin receptor, Akt phosphorylates and inactivates the repressor GSK-3, thereby stimulating glycogen synthesis [Cross et al., 1995]. […] Resolved whole cell lysates were subjected to immunoblot analysis with an antibody that specifically recognizes GSK-3β only when phosphorylated at Ser9, a site critical for its kinase activity, and comparison made with the cytoskeletal protein β-tubulin as a loading control.

[1] = tested on: PC3 prostate carcinoma cells; test: Intracellular redox state assay (DCFDA, flow cytometry)
Experimental: 1×10^6 PC3 prostate carcinoma cells were plated in 60 mm dishes, allowed to attach for 8 h, and serum starved overnight. Cells were incubated with DCFDA 5 μM for 15 min prior to treatment.
The proportion of fluorescent cells was then determined by flow cytometry.
Intracellular redox state was determined using 2′,7′-dichlorodihydrofluorescein diacetate (DCFDA). […] Cells were equilibrated with 5 μM of DCFDA for 15 min prior to various treatments. Adherent cells were then harvested, washed twice with PBS and the proportion of fluorescent cells determined immediately by flow cytometry.

[2] = molecular target: T1, purified human PP2A A-C dimer (Homo sapiens, UniProt P67775); test: Free sulfhydryl groups in purified PP2A (Ellman's assay); type: biochemical; details: 0.01 U PP2A, 10 mM of each agent, 15 min at 37° C.
T1 construct: purified PP2A A-C dimer purified from human red blood cells; purchased Upstate 14-111 (lot #28002); host or cells: human red blood cells (native purification)
Excerpt: Inactivating reversible oxidation of protein phosphatases involves the modification of a critical cysteine residue within the catalytic domain, ultimately leading to the formation of either intramolecular disulphide or sulphenyl-amide bonds. […] Ellman's reagent (5,5′-Dithio-bis(2-nitrobenzoic acid), DTNB) rapidly forms a disulphide bond with free sulfhydryl groups with the release of chromogenic thiolate ions. […] The quantity of free sulfhydryl groups present within the phosphatase was then determined by the addition of Ellman's reagent and subsequent measurement of absorbance at 412 nm (FIG. 5C).
The change in free sulfhydryl groups in purified PP2A following various treatments was determined using Ellman's Reagent. To 0.01 U of PP2A was added to 37.5 μl of dilution buffer (30 mM Tris-HCl, 3 mM EDTA, pH 8.2), 12.5 μl DTNB reagent (Ellman's reagent) and 200 μl of methanol. Samples were incubated for 5 min at RT, and then extinction measured in duplicate for each at 412 nm.

PP2A = molecular target: T2, PP2A (Homo sapiens, UniProt P67775); test: PP2A immunoprecipitation from treated PC3 cells and phosphatase assay; type: cell-based; details: PC3 cells treated 1 hour; sodium selenate 500 μM, endothall A 100 μM
T2 construct: the phosphatase activity of the general pool of intracellular PP2A; endogenous in cells; host or cells: PC3 prostate carcinoma cells
Experimental: Free phosphate was removed by passing cell lysates through desalting columns, and measured phosphatase activity using a phosphor-serine peptide and malachite green.
1×10^6 PC3 cells were plated in 60 mm plates and allowed attach for 8 h, then serum starved over night. Following various treatments as indicated, the media was aspirated and cells washed once with TBS. Cells were lysed in 0.3 ml of lysis buffer (20 mM Tris-HCl, pH 7.0, 1% Igepal-CA, 2 mM EDTA, 2 mM EGTA, 1× Complete Protease Inhibitor Cocktail) and phosphates removed by passing the lysate through a 2 ml Zeba Desalt Spin Column (Pierce #89890). Protein concentration of the desalted lysate was determined by the BCA assay as previously described. 100-150 μg of total protein was immunoprecipitated with 4 μg of anti-PP2A monoclonal antibody and 30 μl of Protein A-sepharose slurry at 4° C. for 2 h. Samples were then pelleted at 14,000 rpm for 1 min, washed three times in excess TBS and once with pNPP assay buffer. After the final spin all of the supernatant was carefully removed and 500 μM of phosphor-threonine peptide in a final volume of 80 μl added to the beads. Samples were incubated at 30° C. for 10 min with agitation, and the reaction terminated by the addition of malachite green solution. Absorbance was read at 590 nm for each sample in duplicate.

Akt = Akt phosphorylation by immunoblot in PC3 prostate carcinoma cells; type: cell-based, human; details: for effect of hydrogen peroxide on sodium selenate induced reduction of Akt phosphorylation: sodium selenate 500 μM; for Akt activation: ratio of phosphorylated Akt to total Akt versus control: serum starved PC3 cells, 500 μM, 1 hour, densitometry
Experimental: Such dephosphorylation may be the result of a direct inhibitory effect on the Akt protein itself, or alternatively, can be similarly achieved indirectly by boosting a negative regulator or inhibiting a positive regulator of Akt phosphorylation. […] PC3 prostate carcinoma cells were plated in 100 mm dishes, and when 70-80% confluent serum starved overnight. […] Cells were lysed, and the level of Akt Ser473 phosphorylation determined by immunoblot analysis with an activation specific antibody, and comparison made to levels of Akt protein expressed. To determine the effect on purified Akt, similarly plated but untreated PC3 cells were lysed in RIPA (minus phosphatase inhibitors), a stringent cell lysis buffer that minimizes maintenance of protein-protein complexes. […] The immunoprecipitated protein was then resolved and the level of activated Akt determined by immunoblot analysis as described above.
A reduction in net Akt activity could be achieved indirectly by either preventing the initial Akt phosphorylation, or alternatively, increasing Akt dephosphorylation [Kohn et. al. 1996]. […] Initially okadaic acid, a polyether toxin from red-tide algae (and causative agent of diarrhoetic shellfish poisoning) which inhibits the phospho-protein phosphatases PP1 and PP2A, two phosphatases implicated in the regulation of Akt dephosphorylation was used [Fernandez et al., 2002]. 5×10^5 PC3 prostate carcinoma cells were plated per well of a 6 well plate, allowed attach for 8 h, and then serum starved overnight. […] Lysed cells were resolved by SDS-PAGE, then probed for Akt phosphorylation at the Ser473 residue by immunoblot analysis with an antibody that specifically recognizes Akt when phosphorylated at this site, and comparison made with the total levels of Akt protein expressed (FIG. 2A).
This panel included tautamycin 500 nM (PP1), okadaic acid 500 nM (low dose PP2A>PP1), endothall A (PP2A) 100 μM, calyculin A 2 nM (low dose PP1>PP2A), calyculin A 10 nM (high dose inhibits PP1 and PP2A) and cyclosporine A 400 ng/ml (PP2B). […] Again, lysed cells were resolved by SDS-PAGE, then membranes probed for Akt phosphorylation at the Ser^473 residue by immunoblot analysis with an antibody that specifically recognizes Akt when phosphorylated at this site, and comparison made with the total levels of Akt protein expressed.
5×10^5 PC3 prostate carcinoma cells were plated per well in a 6-well plate, allowed to attach for 8 h, and then serum starved overnight. […] Equal amounts of whole cell lysates were resolved, and then subjected to immunoblot analysis to determine the level of phosphorylated Akt Ser^473. Comparison was then made with the total level of Akt protein expressed.
The phosphorylation status of Akt in whole cell lysates was determined using activation specific antibodies.
Other inorganic (sodium selenite, selenium dioxide, selenium sulphide and selenious acid) and organic (methylselenocysteine, selenocystine) selenium species were tested for their ability to affect Akt activation. All forms were dissolved in water with the exception of selenium sulphide which was solubilised in DMSO, and added to serum starved PC3 cells at a concentration of 500 μM for 1 hour, Whole cell lysates were then resolved, and the activation status of Akt determined by immunoblotting with an antibody that specifically recognizes Akt when phosphorylated at the Ser473 site, as well as the total level of Akt expression (pan Akt). To quantify the degree of Akt activation, immunoblots were digitalised, and the ratio of phosphorylated Akt to total Akt determined by densitometry.

PP2A A-C dimer = molecular target: T3, PP2A A-C dimer (Homo sapiens, UniProt P67775); test: Phosphopeptide / malachite green assay with purified PP2A; type: biochemical; details: 50 μM of each selenium compound
T3 construct: purified PP2A A-C dimer purified from human red blood cells; purchased Upstate 14-111 (lot #28002); host or cells: human red blood cells (native purification)
Experimental: The amount of inorganic phosphate released by enzymatic activity was determined by the addition of malachite green, and absorbance read at 590 nm. Malachite green forms a stable green complex in the presence of molybdate and orthophosphate, allowing the concentration of inorganic phosphate present to be measured. Data is presented as mean absorbance at 590 nm from at least three independent experiments, ±SEM.
1 mg of synthetic phosphopeptides K-R-pT-I-R-R (Upstate #12-219) and R-R-A-pS-V-A (Upstate #12-220) were dissolved in 1.10-1.285 ml of dH2O to prepare a 1 mM solution, then aliquoted and stored at −20° C. until use. 0.01-0.05 U of purified PP2A A-C dimer purified from human red blood cells, or 0.05 U of rabbit PP1 purified from skeletal muscle was mixed with 500 μM of phosphopeptide and incubated in the presence of various treatments as indicated at 37° C. on a heating block for 15 min. Each reaction was made up to a total volume of 25 μl with pNPP buffer (50 mM Tris-HCl, pH 7.0, 100 μM CaCl2). The enzyme reaction was terminated by adding 100 μl of malachite green solution (0.034% malachite green in 10 mM ammonium molybdate, 1 N HCl, 3.4% ethanol, 0.01% Tween-20). Malachite green forms a stable green complex in the presence of molybdate and orthophosphate, allowing the amount of inorganic phosphate present to be measured. Absorbance was read in duplicate for each sample at 590 nm.

[3] = molecular target: T4, human PP2A A-C heterodimer (Homo sapiens, UniProt P67775); type: biochemical; details: 5 mM of each selenium compound
T4 construct: purified PP2A A-C dimer purified from human red blood cells; purchased Upstate 14-111 (lot #28002); host or cells: human red blood cells (native purification)
Experimental: In initial assays a chemical substrate of phosphatase enzymatic action, para-nitrophennylphosphate (pNPP) was used, which following hydrolysis of the phosphate moiety generates para-nitrophenol, an intensely yellow chromogen which is soluble under alkaline conditions. […] Absorbance of each sample was measured in duplicate at 405 nm with 590 nm as a reference. PP2A activity was calculated using the following equation: activity=(sample vol in liters)×A405/1.78×104M^−1 cm^−1 (extinction coefficient)×0.25 cm×15 minutes×0.05 U enzyme Data is presented as mean relative phosphatase activity ±SEM from at least three independent experiments.
Para-nitrophennylphosphate (PNPP) is a chemical substrate of phosphatase enzymes, which following hydrolysis of the phosphate moiety generates para-nitrophenol, an intensely yellow chromogen, soluble under alkaline conditions. In assays measuring relative phosphatase activity, 0.05 U of purified PP2A was mixed with 5 μl of 40 mM NiCl2 and 5 μl of BSA solution (5 mg/ml) in a microcentrifuge tube. Various treatments were added as indicated, and the volume adjusted to 80 μl with pNPP assay buffer. Samples were pre-incubated at 37° C. for 15 min. pNPP substrate was freshly prepared before each assay by dissolving 1.5 mg/ml pNPP in 50 mM Tris-HCl, pH 7.0. To start the phosphatase reaction, 120 μl of pNPP substrate was added, and samples incubated for a further 15 min at 37° C. Absorbance of each sample was measured in duplicate at 405 nm with 590 nm as a reference. PP2A activity was calculated using the following equation: activity=(Sample volume in liters)×A405/1.78×10^4M^−1cm^−1 (Extinction coefficient)×0.25 cm×15 min×0.05 U enzyme.

T1 sequence (P67775 whole entry): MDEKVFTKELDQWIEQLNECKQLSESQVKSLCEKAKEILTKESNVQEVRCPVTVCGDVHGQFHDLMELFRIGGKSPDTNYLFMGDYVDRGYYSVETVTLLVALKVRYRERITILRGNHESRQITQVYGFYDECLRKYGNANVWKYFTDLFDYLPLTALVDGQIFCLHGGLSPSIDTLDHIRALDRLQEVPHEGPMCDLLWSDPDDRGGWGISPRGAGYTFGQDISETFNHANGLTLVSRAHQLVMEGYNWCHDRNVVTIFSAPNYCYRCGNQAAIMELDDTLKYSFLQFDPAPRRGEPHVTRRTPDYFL
T1 sequence (P30153 2-589 partner limits assumed): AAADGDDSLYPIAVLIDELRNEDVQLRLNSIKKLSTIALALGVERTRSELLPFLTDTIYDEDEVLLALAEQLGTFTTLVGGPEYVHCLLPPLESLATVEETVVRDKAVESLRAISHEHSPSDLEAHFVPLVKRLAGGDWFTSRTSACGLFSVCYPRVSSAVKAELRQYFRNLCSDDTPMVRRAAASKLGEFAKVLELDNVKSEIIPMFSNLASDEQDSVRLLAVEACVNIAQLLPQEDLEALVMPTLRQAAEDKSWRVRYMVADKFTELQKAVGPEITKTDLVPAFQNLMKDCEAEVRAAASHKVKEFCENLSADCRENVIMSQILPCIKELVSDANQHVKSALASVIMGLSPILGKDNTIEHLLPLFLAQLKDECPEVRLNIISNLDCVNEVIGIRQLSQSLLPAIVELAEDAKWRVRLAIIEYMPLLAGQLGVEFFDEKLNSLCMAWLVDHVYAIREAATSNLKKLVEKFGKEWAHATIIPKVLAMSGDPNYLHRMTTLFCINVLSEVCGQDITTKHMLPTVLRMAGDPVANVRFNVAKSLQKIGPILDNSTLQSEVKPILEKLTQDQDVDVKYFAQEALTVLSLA
T3 sequence (P67775 whole entry): as the sequence (P67775 whole entry) above
T3 sequence (P30153 2-589 partner limits assumed): as the sequence (P30153 2-589 partner limits assumed) above
T4 sequence (P67775 whole entry): as the sequence (P67775 whole entry) above
T4 sequence (P30153 2-589 partner limits assumed): as the sequence (P30153 2-589 partner limits assumed) above
T2 sequence (P67775 whole entry): as the sequence (P67775 whole entry) above
T2 sequence (P30153 2-589 partner limits assumed): as the sequence (P30153 2-589 partner limits assumed) above

O=c1cc(N2CCOCC2)oc2c(-c3ccccc3)cccc12 [LY294002, reference compound]
reduction of GSK-3β phosphorylation levels (GSK-3β): ~60%

CC(=O)N[C@@H](CS)C(=O)O [NAC, N-acetylcysteine]
basal proportion of fluorescent cells (ROS) ([1]; 1 h, sodium selenate 500 μM, NAC 1 mM): small reduction in the basal proportion of fluorescent cells

CCN1C(=O)C=CC1=O [NEM, N-ethylmaleimide, reference compound]
number of free sulfhydryl groups in PP2A [2]: significantly reduced the number of free sulfhydryl groups

O=C(O)[C@@H]1[C@H](C(=O)O)[C@H]2CC[C@@H]1O2 [endothall A, reference compound]
phosphatase activity of immunoprecipitated PP2A (general intracellular pool) (PP2A): significantly reduced phosphatase activity | effect of PPP inhibitor pretreatment on sodium selenate induced Akt Ser473 dephosphorylation (Akt): completely blocked sodium selenate induced Akt dephosphorylation

OO [hydrogen peroxide]
generation of intracellular oxygen free radicals ([1]; hydrogen peroxide 500 μM, 10 min): marked increase in the generation of intracellular oxygen free radicals | effect of hydrogen peroxide on sodium selenate induced reduction of Akt phosphorylation (Akt; PC3 cells, hydrogen peroxide 0.25 mM for 10 min): unaffected | effect of hydrogen peroxide on sodium selenate induced reduction of Akt phosphorylation (Akt; PC3 cells, hydrogen peroxide 1 mM for 10 min): completely abolished the dephosphorylating effect of sodium selenate | number of free sulfhydryl groups in PP2A [2]: significantly reduced the number of free sulfhydryl groups

O=[Se]=O [selenium dioxide]
Akt activation: ratio of phosphorylated Akt to total Akt versus control (Akt): induce activation of Akt above control (con) levels

S=[Se]=S [selenium sulfide]
Akt activation: ratio of phosphorylated Akt to total Akt versus control (Akt): induce activation of Akt above control (con) levels

N[C@@H](C[SeH])C(=O)O [selenocysteine]
Akt activation: ratio of phosphorylated Akt to total Akt versus control (Akt): induce activation of Akt above control (con) levels

C[Se]CC[C@H](N)C(=O)O [selenomethionine, reference compound]
PP2A phosphatase activity, serine phosphopeptide as substrate (PP2A A-C dimer): neither sodium selenite nor selenomethionine significantly affected PP2A phosphatase activity | PP2A phosphatase activity, pNPP as substrate [3]: neither sodium selenite nor selenomethionine significantly affected PP2A phosphatase activity | Akt phosphorylation at Ser473 (Akt; PC3 cells, 500 μM of each compound, various timepoints): did not affect the level of Akt phosphorylation; also recorded: did not affect the level of phosphorylation of Akt

O=[Se](O)O [selenous acid]
Akt activation: ratio of phosphorylated Akt to total Akt versus control (Akt): induce activation of Akt above control (con) levels
